The record followed here is PubChem BioAssay (NCI).

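Five compound concentrations were applied to cells in 96-well plates for 48 hours; endpoints were derived by simple linear interpolation of the resulting dose-response curve. TGI: concentration producing complete growth inhibition.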

What all share (experiment): DTP human tumour cell line panel, 48 h
Test [1] has as its system SF-268 CNS.
Test [2] relates to HT29 colon.
Test [3] deals with OVCAR-8 ovarian.
Test [4] concerns A549 NSCLC.
Test [5] relates to SNB-19 CNS.
The test system of test [6] is ACHN renal.
Test [7] has as its system 786-0 renal.
Test [8] deals with NCI-H23 lung.
Test [9] concerns SF-539 CNS.
For test [10], the system named is NCI/ADR-RES ovarian.
For test [11], the system named is SNB-75 CNS.
The test system of test [12] is SF-295 CNS.
The test system of test [13] is OVCAR-4 ovarian.
Test [14] has as its system COLO 205 colon.
The subject of test [15] is SK-OV-3 ovarian.
Test [16] deals with MDA-MB-435.
The test system of test [17] is T-47D breast.
The subject of test [18] is NCI-H226 lung.
The test system of test [19] is OVCAR-3 ovarian.
For test [20], the system named is SK-MEL-2 melanoma.

By TGI is commonly meant the concentration giving total growth inhibition. For `COc1cc2c(cc1OC)-c1[nH]c3ccc(C#N)cc3c1CC(=O)N2`, the concentration for total growth inhibition (TGI) in test [1], in [2], in test [3], in test [4], in test [5] and in [6] was more than 100 µM each time. The TGI in test [7], in [8], in test [9], in [10], in test [11] and in test [12] was more than 100 µM each time. Also, the total growth inhibition concentration (TGI) in [13] was more than 100 µM; in test [14], 10.6 µM; in [15], more than 100 µM; in [16], more than 100 µM; in [17], more than 100 µM; in test [18], more than 100 µM.
For the molecule `CC1(C)C(=O)N(O)C(C)(C)N1O`, the total growth inhibition concentration (TGI) in [19], in [20], in [1], in [2], in test [3] and in [4] was more than 10 µM throughout. For the same molecule, the concentration for total growth inhibition (TGI) in test [5], in [6], in test [7], in [8], in test [9] and in test [10] was more than 10 µM each time. The TGI in test [11], in test [12], in [13], in [14], in test [15] and in test [16] was more than 10 µM each time. For the same molecule, the TGI in test [17] and in test [18] was more than 10 µM in each case.
With `COc1ccc(C2c3cc4c(cc3C(O)C3CCC(=O)N23)OCO4)cc1` (stereo not drawn), the TGI in [19], in [20], in test [1], in [2], in test [3] and in test [4] was more than 100 µM throughout. For the same molecule, the TGI in [5], in test [6], in [7], in [8], in test [9] and in test [10] was more than 100 µM throughout. The TGI in test [11], in [12], in test [13], in [14], in [15] and in test [16] was more than 100 µM each time. The total growth inhibition concentration (TGI) in test [17] and in test [18] was more than 100 µM in each case.
On to `NC1CC(=O)c2cc(Cl)sc21` (stereo not drawn), for which the TGI in test [19], in test [20], in test [1], in [2], in test [3] and in test [4] was more than 100 µM each time. Moreover, the TGI in test [5], in [6], in test [7], in test [8], in [9] and in [10] was more than 100 µM each time. Besides, the TGI in test [11], in test [12], in test [13], in [14], in test [15] and in [16] was more than 100 µM throughout. The TGI in [17] and in test [18] was more than 100 µM each time.
`O=C(O)c1c[nH]c2c(Sc3ccccc3)nccc2c1=O`: the concentration for total growth inhibition (TGI) in test [19], in [20], in [1], in test [2], in test [3] and in test [4] was more than 100 µM in each case. Also, the total growth inhibition concentration (TGI) in test [5], in test [6], in test [7], in test [8], in test [9] and in [10] was more than 100 µM throughout. Besides, the TGI in test [11], in test [12], in [13], in [14], in [15] and in [16] was more than 100 µM each time. For the same molecule, the TGI in [17] and in test [18] was more than 100 µM each time.
On to `CCOC(=O)c1nc2ccc(C(F)(F)F)cc2nc1NCc1ccc(Cl)c(Cl)c1`, for which the TGI was 66.2 µM in [19]; more than 100 µM in test [20]; more than 100 µM in test [1]; 90.9 µM in [2]; more than 100 µM in [3]; more than 100 µM in test [4]. In addition, the concentration for total growth inhibition (TGI) is 83.2 µM in test [5]; 68 µM in [6]; 46.7 µM in test [7]; more than 100 µM in [8]; more than 100 µM in test [9]; more than 100 µM in test [10]. Besides, the total growth inhibition concentration (TGI) in test [11] is 51.3 µM; in test [12], 69.9 µM; in test [13], 48.6 µM; in [14], more than 100 µM; in [15], more than 100 µM; in [16], 56.7 µM. In addition, the TGI in test [17] and in test [18] was more than 100 µM throughout.
`O=S1(=O)c2cnccc2NC(=NCc2cccc3ccccc23)N1c1ccccc1`: the concentration for total growth inhibition (TGI) in test [19] is more than 100 µM; in [20] it was more than 30.5 µM; in [1], more than 100 µM; in test [2], more than 100 µM; in test [3], more than 100 µM; in test [4], more than 100 µM. Moreover, the concentration for total growth inhibition (TGI) is more than 100 µM in test [5]; more than 100 µM in test [6]; 74.7 µM in test [7]; more than 100 µM in test [8]; more than 100 µM in test [9]; more than 100 µM in test [10]. Also, the total growth inhibition concentration (TGI) in test [11], in [12], in [13], in test [14], in test [15] and in test [16] was more than 100 µM throughout. For the same molecule, the TGI in [17] and in test [18] was more than 100 µM in each case.
